From publication PMC9103758 (International Journal of Molecular Sciences, 2022)
Where “and” joins values, the source holds several entries; their conditions need not be identical. Equal entries are not always repeated. Where two headings read alike, the source gives them in different places.

Tests used:
ANO1 = molecular target: T1, ANO1 (Homo sapiens, UniProt Q5XXA6, DEL476-501); assay: YFP fluorescence quenching assay for ANO1 activity in FRT-ANO1 cells; assay type: cell-based; settings: ATP 100 μM, n = 4
T1 construct: expressed in transfected cells; host or cells: Fisher rat thyroid (FRT) cells; The YFP assay uses FRT-ANO1-YFP cells, which also carry the halide sensor
T1 sequence (Q5XXA6 with tags, fused parts or gaps isoform Q5XXA6-5 DEL539-564): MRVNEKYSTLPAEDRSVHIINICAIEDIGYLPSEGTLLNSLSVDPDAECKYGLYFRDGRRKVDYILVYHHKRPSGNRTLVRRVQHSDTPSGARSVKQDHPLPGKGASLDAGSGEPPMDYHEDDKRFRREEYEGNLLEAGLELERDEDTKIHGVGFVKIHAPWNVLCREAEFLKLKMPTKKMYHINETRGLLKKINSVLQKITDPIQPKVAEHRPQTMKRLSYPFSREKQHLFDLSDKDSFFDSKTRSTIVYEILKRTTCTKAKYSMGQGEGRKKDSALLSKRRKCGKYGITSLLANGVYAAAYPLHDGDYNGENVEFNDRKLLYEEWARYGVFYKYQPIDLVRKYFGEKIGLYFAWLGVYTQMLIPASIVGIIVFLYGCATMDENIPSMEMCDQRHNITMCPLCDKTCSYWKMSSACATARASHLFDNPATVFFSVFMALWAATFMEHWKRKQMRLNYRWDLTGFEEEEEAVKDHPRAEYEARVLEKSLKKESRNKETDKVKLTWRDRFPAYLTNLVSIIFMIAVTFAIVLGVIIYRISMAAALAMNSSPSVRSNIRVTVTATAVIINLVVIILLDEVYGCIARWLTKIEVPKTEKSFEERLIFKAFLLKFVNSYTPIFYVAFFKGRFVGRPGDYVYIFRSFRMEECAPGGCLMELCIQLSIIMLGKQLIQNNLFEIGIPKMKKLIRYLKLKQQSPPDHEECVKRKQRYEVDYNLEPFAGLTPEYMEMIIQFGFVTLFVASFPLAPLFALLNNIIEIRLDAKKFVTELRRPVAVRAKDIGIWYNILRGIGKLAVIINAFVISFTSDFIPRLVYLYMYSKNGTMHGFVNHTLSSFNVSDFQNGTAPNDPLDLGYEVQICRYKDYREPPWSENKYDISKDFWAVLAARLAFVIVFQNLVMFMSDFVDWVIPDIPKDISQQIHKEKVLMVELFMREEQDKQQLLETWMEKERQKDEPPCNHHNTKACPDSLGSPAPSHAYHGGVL
Description: Figure 2 Inhibitory effects of VI-101, VI-201 and VI-301 on VRAC and ANO1. (A–C) Representative YFP fluorescence traces for VRAC activity. LN215 cells were treated with the indicated concentrations of VI-101, VI-201 and VI-301 with hypotonic solution for 5 min. (D) Dose-response curve of VRAC inhibition (mean ± S.E., n = 4). (E–G) Representative YFP fluorescence traces for ANO1 activity. […]. (H) Dose-response curve of ANO1 inhibition (mean ± S.E., n = 4).
Human ANO1(abc) expressing Fisher rat thyroid (FRT) cells, ANO2 expressing FRT cells, and human CFTR expressing FRT cells were cultured as described in a previous study. LN215 cells were stably transfected with the halide sensor YFP-F46L/H148Q/I152 and NIH-3T3 cells cultured in DMEM were supplemented with 10% FBS, 2 mM L-glutamine, 100 units/mL penicillin, and 100 μg/mL streptomycin. HEK293T cells were stably transfected with the human Kv11.1 (hERG) and cultured in DMEM supplemented with 10% FBS, 2 mM L-glutamine, 100 units/mL penicillin, and 100 μg/mL streptomycin. PC3, HT29, and HeLa cells were stably transfected with the halide sensor YFP-F46L/H148Q/I152 and cultured in RPMI 1640 supplemented with 10% FBS, 2 mM L-glutamine, 100 units/mL penicillin, and 100 μg/mL streptomycin. […]

VRAC [1] = molecular target: T2, VRAC (Homo sapiens, UniProt Q8IWT6); assay: cell-based; settings: VRAC IC50, YFP fluorescence quenching, LN215 cells, hypotonic solution 5 min, n = 4
T2 sequence (Q8IWT6 1-810): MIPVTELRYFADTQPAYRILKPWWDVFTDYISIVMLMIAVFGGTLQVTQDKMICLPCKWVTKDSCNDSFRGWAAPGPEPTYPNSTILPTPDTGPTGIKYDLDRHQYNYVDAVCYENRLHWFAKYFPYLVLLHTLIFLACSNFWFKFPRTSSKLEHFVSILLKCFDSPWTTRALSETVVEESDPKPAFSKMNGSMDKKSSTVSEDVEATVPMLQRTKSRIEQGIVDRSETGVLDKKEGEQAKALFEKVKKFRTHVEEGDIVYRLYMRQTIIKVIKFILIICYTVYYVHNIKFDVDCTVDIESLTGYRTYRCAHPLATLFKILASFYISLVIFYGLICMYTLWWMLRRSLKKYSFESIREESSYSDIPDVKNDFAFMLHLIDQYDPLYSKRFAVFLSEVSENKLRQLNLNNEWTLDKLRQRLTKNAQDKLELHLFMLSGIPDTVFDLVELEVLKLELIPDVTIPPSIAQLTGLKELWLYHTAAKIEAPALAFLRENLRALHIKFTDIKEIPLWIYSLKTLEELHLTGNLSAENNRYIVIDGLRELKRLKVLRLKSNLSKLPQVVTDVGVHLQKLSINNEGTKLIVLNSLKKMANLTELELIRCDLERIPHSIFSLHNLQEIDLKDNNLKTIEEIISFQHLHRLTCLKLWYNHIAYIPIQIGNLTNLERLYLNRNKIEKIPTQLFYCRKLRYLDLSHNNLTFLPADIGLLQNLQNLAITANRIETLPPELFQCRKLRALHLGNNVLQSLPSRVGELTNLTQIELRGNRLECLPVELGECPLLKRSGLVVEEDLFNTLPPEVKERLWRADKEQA

human CFTR = molecular target: T3, human CFTR (Homo sapiens, UniProt P13569); assay: Apical membrane current of CFTR in FRT cells expressing human CFTR; assay type: cell-based; settings: 20 μM
T3 construct: expressed in transfected cells; host or cells: Fisher rat thyroid (FRT) cells
T3 sequence (P13569 whole entry): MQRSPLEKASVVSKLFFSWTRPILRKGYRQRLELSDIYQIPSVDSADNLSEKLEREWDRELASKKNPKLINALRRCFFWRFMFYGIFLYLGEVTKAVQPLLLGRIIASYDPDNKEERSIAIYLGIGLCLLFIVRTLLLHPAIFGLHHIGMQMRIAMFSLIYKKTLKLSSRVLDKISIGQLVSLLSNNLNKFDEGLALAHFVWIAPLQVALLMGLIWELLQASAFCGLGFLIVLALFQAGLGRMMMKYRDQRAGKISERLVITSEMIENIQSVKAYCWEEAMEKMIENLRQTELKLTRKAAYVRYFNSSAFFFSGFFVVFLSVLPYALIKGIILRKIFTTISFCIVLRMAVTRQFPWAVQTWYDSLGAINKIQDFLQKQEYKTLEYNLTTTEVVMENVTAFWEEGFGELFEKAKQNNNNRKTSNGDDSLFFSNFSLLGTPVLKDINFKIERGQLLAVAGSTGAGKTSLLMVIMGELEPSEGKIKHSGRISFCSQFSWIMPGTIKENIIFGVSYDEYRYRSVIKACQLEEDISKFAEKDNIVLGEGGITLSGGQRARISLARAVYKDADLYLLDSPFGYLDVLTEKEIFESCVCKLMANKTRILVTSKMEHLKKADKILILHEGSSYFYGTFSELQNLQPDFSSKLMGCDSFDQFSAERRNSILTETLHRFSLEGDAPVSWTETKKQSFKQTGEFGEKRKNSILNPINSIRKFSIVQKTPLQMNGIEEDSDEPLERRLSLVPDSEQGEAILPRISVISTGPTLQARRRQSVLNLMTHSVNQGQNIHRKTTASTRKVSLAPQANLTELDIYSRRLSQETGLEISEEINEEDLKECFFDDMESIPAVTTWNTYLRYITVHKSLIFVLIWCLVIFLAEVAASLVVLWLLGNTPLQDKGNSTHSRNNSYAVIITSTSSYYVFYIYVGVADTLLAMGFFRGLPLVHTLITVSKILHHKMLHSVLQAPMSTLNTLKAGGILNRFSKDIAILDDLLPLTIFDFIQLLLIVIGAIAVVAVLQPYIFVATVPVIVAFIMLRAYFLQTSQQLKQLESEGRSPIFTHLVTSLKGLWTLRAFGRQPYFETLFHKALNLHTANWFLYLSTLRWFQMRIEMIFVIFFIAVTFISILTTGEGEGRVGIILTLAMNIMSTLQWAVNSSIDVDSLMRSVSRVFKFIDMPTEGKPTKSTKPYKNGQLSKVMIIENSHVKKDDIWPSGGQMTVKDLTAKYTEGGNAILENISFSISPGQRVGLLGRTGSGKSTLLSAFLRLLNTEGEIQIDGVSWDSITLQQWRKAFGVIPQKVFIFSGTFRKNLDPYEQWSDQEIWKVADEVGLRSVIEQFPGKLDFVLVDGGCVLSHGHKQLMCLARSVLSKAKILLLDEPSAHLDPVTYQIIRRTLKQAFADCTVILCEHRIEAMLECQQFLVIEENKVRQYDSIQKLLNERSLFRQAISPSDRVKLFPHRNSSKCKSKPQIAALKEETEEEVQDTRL
Excerpt: […]. (C) Summary of dose-response (mean ± S.E., n = 5). […]. (F) Summary of dose−response (mean ± S.E., n = 6).
Snapwell inserts containing ANO1(abc) or CFTR-expressing FRT cells were mounted in Ussing chambers (Physiological Instruments, San Diego, CA). The basolateral hemichamber was filled with buffer solution (in mM): 120 NaCl, 5 KCl, 1 MgCl2, 1 CaCl2, 10 D-glucose, 2.5 HEPES, and 25 NaHCO3 (pH 7.4). The apical hemichamber was filled with buffer solution (in mM): 60 NaCl, 60 Na-gluconate, 5 KCl, 1 MgCl2, 1 CaCl2, 10 D-glucose, 2.5 HEPES, and 25 NaHCO3 (pH 7.4). FRT cells were bathed for a 10 min stabilization period and gassed with 5% CO2 and 95% O2 at 37 °C. The apical membrane current was recorded with an EVC4000 Multi-Channel V/I Clamp (World Precision Instruments, Sarasota, FL, USA) and a PowerLab 4/35 (AD Instruments, Castle Hill, Australia).

VRAC [2] = molecular target: T2, VRAC; settings: read-out: VRAC IC50; YFP fluorescence quenching, LN215 cells, hypotonic solution 5 min, n = 4
human ANO2 = molecular target: T4, human ANO2 (Homo sapiens, UniProt Q9NQ90); assay: YFP fluorescence quenching assay in FRT cells expressing human ANO2; assay type: cell-based; settings: 30 μM, ANO2 activated by 100 μM ATP
T4 construct: expressed in transfected cells; host or cells: Fisher rat thyroid (FRT) cells
T4 sequence (Q9NQ90 1-998): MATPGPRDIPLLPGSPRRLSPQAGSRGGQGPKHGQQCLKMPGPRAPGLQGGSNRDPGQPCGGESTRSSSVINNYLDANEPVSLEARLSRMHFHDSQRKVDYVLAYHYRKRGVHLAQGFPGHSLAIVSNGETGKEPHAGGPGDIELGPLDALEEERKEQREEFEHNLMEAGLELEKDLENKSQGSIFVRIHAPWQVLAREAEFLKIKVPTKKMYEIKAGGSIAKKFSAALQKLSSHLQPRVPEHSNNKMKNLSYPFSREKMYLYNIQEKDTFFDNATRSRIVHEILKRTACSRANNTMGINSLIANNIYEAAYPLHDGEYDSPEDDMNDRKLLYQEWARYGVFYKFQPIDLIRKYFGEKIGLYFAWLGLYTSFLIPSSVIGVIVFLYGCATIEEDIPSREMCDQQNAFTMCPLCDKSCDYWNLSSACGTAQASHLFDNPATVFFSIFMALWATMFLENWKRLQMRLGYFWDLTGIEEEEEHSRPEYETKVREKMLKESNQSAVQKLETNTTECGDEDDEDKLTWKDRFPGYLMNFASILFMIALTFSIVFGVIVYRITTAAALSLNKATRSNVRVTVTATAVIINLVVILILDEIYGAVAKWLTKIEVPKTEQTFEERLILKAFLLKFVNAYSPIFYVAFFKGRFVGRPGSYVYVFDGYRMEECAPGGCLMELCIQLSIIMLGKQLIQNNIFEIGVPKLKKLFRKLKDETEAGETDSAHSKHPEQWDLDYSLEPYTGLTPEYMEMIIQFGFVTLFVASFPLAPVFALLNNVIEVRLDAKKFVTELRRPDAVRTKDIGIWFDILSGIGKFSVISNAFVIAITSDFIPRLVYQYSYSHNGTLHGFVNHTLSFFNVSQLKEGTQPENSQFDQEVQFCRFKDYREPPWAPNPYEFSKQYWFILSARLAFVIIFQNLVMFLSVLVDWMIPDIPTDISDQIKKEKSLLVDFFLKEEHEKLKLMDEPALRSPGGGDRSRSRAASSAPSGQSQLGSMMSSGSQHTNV
Description: ANO2 activity was measured using YFP fluorescence quenching assay in FRT cells expressing human ANO2.
(D) Representative YFP fluorescence traces in FRT cells expressing human ANO2.

Row | Compound | IC50 (ANO1) [µM] | IC50 (VRAC [1]) | block of CFTR (human CFTR) | IC50 (VRAC [2]) [µM] | block of ANO2 (human ANO2)
1 | O=c1oc2ccccc2c(O)c1C(c1cc([N+](=O)[O-])cc([N+](=O)[O-])c1Cl)c1c(O)c2ccccc2oc1=O [VI-104] | 37.9 | 30 µM |  |  | 
2 | O=c1oc2ccccc2c(O)c1C(c1ccncc1)c1c(O)c2ccccc2oc1=O [VI-108] | 34.7 | 17 µM |  |  | 
3 | O=C(O)c1ccc(/C=C2\SC(=S)N(c3cccc(C(F)(F)F)c3)C2=O)cc1 [CFTRinh−172] |  |  | completely blocked |  | 
4 | O=c1oc2ccccc2c(O)c1C(c1ccccc1)c1c(O)c2ccccc2oc1=O [VI-107] | 95.2 |  |  | 103 | 
5 | CCc1c(C)nc(SCC(=O)Nc2nc(-c3ccc(OC)cc3)cs2)[nH]c1=O [T16Ainh-A01, reference compound] |  |  |  |  | completely blocked
6 | O=c1oc2ccccc2c(O)c1C(c1ccc(Cl)c([N+](=O)[O-])c1)c1c(O)c2ccccc2oc1=O [VI-102] | 3 | 0.8 µM |  |  | 
7 | COc1cc(OC)cc(C(c2c(O)c3ccccc3oc2=O)c2c(O)c3ccccc3oc2=O)c1 [VI-120] | 3.9 | 9.3 µM |  |  | 
8 | O=c1oc2ccccc2c(O)c1C(c1ccccc1Cl)c1c(O)c2ccccc2oc1=O [VI-109] | 2 | 0.9 µM |  |  | 
9 | CN(C)c1ccc(C(c2c(O)c3ccccc3oc2=O)c2c(O)c3ccccc3oc2=O)cc1[N+](=O)[O-] [VI-106] | 3.6 | 1.3 µM |  |  | 
10 | COc1ccc(C(c2c(O)c3ccccc3oc2=O)c2c(O)c3ccccc3oc2=O)cc1OC [VI-118] | 14.2 | 4 µM |  |  | 
11 | CCN(CC)c1ccc(C(c2c(O)c3ccccc3oc2=O)c2c(O)c3ccccc3oc2=O)cc1 [VI-111] | 3.2 | 2.9 µM |  |  | 
12 | O=c1oc2ccccc2c(O)c1C(c1ccccc1F)c1c(O)c2ccccc2oc1=O [VI-110] | 4.8 | 0.58 µM and 0.6 µM |  |  | 
13 | CC(C)Oc1ccc(C(c2c(O)c3ccccc3oc2=O)c2c(O)c3ccccc3oc2=O)cc1 [VI-112] | 0.8 | 1.4 µM |  |  | 
14 | CCOc1ccc(C(c2c(O)c3ccccc3oc2=O)c2c(O)c3ccccc3oc2=O)cc1OC [VI-119] | 4.9 | 12 µM |  |  | 
15 | O=c1oc2ccccc2c(O)c1C(c1cccc([N+](=O)[O-])c1)c1c(O)c2ccccc2oc1=O [VI-105] | 3.8 | 4.9 µM |  |  | 
16 | O=c1oc2ccccc2c(O)c1C(c1cc([N+](=O)[O-])c(Cl)cc1Cl)c1c(O)c2ccccc2oc1=O [VI-103] | 3.2 | 3.3 µM |  |  | 
17 | O=c1oc2ccccc2c(O)c1C(c1cc([N+](=O)[O-])ccc1Cl)c1c(O)c2ccccc2oc1=O [VI-101] | 3.2 | 3.3 µM |  |  | 
18 | O=c1oc2ccccc2c(O)c1C(c1cc2c(cc1[N+](=O)[O-])OCO2)c1c(O)c2ccccc2oc1=O [VI-114] | 20.3 | 10.6 µM |  |  | 
19 | O=c1oc2ccccc2c(O)c1C(c1ccc(O)c(O)c1)c1c(O)c2ccccc2oc1=O [VI-115] | 61.6 | 47.9 µM |  |  | 
20 | O=c1oc2ccccc2c(O)c1C(c1ccc2c(c1)OCO2)c1c(O)c2ccccc2oc1=O [VI-113] | 3.9 | 1.9 µM |  |  | 
21 | CCOc1cc(C(c2c(O)c3ccccc3oc2=O)c2c(O)c3ccccc3oc2=O)ccc1O [VI-117] | 14.2 | 6.8 µM |  |  | 
